According to ChEMBL document CHEMBL5126517, “Structure-Activity Relationship in the Leucettine Family of Kinase Inhibitors” (J Med Chem, 2022):

What was measured:
[1] = molecular target: T1, Dual specificity tyrosine-phosphorylation-regulated kinase 1A (Homo sapiens, UniProt Q13627); experiment: Inhibition of GST-fused human recombinant DYRK1A expressed in Escherichia coli using GRSRSRSRSRSR peptide as substrate incubated for 30 mins in presence of ATP by scintillation counting method
HT-22 [2] = experiment: Modulation of CLK1 pre-mRNA splicing in mouse HT-22 cells assessed as inclusion of CLK1 exon 4 by measuring change in threshold cycle at 10 uM measured after 4 hrs by real time PCR analysis; assay type: cell-based; conditions: filed as modulator
[3] = molecular target: T1, Dual specificity tyrosine-phosphorylation-regulated kinase 1A; experiment: Inhibition of DYRK1A in human SH-SY5Y overexpressing Tau4R cells assessed as phosphorylated Tau Thr212 residue level at 10 uM incubated for 6 hrs by western blot analysis relative to control; assay type: cell-based
[4] = Neurotoxicity against mouse HT-22 cells assessed as cell survival at 20 uM treated for 24 hrs by MTS assay; assay type: toxicity, cell-based; conditions: ht-22, 24 h
[5] = molecular target: Dual specificity tyrosine-phosphorylation-regulated kinase 1B (Homo sapiens, UniProt Q9Y463)
[6] = molecular target: Dual specificity protein kinase CLK1 (Mus musculus, UniProt P22518); experiment: Inhibition of GST-fused mouse recombinant CLK1 expressed in Escherichia coli using GRSRSRSRSRSR peptide as substrate incubated for 30 mins in presence of ATP by scintillation counting method
U2OS = experiment: Induction of PI3K/mTor-dependent autophagy in human U2OS cells assessed as number of LC3 foci per cell at 10 uM measured after 4 hrs; assay type: cell-based; conditions: filed as activator
[7] = molecular target: Serine/threonine-protein kinase pim-1 (Homo sapiens, UniProt P11309); experiment: Inhibition of human recombinant Pim1 expressed in Escherichia coli using histone H1 as substrate incubated for 30 mins in presence of ATP by scintillation counting method
Casein kinase 2 = Casein kinase 2 (Homo sapiens, UniProt P67870+P68400+P19784+Q8NEV1); experiment: Inhibition of human recombinant CK2 using RRRDDDSDDD peptide as substrate incubated for 30 mins in presence of ATP by scintillation counting method; assay type: protein assay
Cannabinoid receptor 1 [8] = molecular target: T2, Cannabinoid receptor 1 (Homo sapiens, UniProt P21554); experiment: Antagonist activity at CP-55940-activated CB1 receptor (unknown origin) at 10 uM by beta-arrestin assay relative to control; assay type: functional; design: scale not given: the % may be the effect or the level left
[9] = molecular target: T3, Dual specificity tyrosine-phosphorylation-regulated kinase 3 (Homo sapiens, UniProt O43781); experiment: Inhibition of GST-fused human recombinant DYRK3 expressed in Escherichia coli using GRSRSRSRSRSR peptide as substrate incubated for 30 mins in presence of ATP by scintillation counting method
T3 sequence (O43781 whole entry): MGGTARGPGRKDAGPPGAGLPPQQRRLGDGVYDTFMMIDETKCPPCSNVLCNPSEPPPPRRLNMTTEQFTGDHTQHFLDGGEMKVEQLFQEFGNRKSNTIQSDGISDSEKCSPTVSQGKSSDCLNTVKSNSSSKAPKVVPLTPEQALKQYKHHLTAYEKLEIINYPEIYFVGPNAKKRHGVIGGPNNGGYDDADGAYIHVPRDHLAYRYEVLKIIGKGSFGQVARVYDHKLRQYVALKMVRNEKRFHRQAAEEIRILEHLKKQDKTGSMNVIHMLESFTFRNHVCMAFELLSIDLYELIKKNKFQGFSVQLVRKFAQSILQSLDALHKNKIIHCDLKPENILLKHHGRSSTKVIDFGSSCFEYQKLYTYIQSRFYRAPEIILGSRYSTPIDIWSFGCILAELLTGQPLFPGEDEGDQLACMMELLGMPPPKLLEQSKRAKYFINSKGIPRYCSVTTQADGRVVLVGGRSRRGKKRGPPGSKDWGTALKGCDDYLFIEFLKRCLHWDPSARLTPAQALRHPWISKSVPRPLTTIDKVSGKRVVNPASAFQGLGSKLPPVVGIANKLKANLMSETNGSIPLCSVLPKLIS

[10] = molecular target: Dual specificity protein kinase CLK2 (Mus musculus, UniProt O35491); experiment: Inhibition of mouse recombinant GST-fused CLK2 expressed in Escherichia coli using GRSRSRSRSRSR peptide as substrate incubated for 30 mins in presence of ATP by scintillation counting method
[11] = Neurotoxicity against mouse HT-22 cells assessed as cell survival treated for 24 hrs by MTS assay; assay type: toxicity, cell-based
[12] = molecular target: Glycogen synthase kinase-3 (Sus scrofa, UniProt B2LUN4+I6LNT8); experiment: Inhibition of porcine brain GSK-3alpha/beta using YRRAAVPPSPSLSRHSSPHQpSEDEEE as substrate incubated for 30 mins in presence of ATP by scintillation counting method; assay type: tissue-based
[13] = molecular target: Dual specificity protein kinase CLK4 (Mus musculus, UniProt O35493); experiment: Inhibition of GST-fused mouse recombinant CLK4 expressed in Escherichia coli using GRSRSRSRSRSR peptide as substrate incubated for 30 mins in presence of ATP by scintillation counting method
[14] = molecular target: Dual specificity protein kinase CLK3 (Mus musculus, UniProt O35492); experiment: Inhibition of GST-fused mouse recombinant CLK3 expressed in Escherichia coli using GRSRSRSRSRSR peptide as substrate incubated for 30 mins in presence of ATP by scintillation counting method
[15] = molecular target: T4, Dual specificity tyrosine-phosphorylation-regulated kinase 2 (Homo sapiens, UniProt Q92630); experiment: Inhibition of GST-fused human recombinant DYRK2 expressed in Escherichia coli using GRSRSRSRSRSR peptide as substrate incubated for 30 mins in presence of ATP by scintillation counting method
T4 sequence (Q92630 whole entry): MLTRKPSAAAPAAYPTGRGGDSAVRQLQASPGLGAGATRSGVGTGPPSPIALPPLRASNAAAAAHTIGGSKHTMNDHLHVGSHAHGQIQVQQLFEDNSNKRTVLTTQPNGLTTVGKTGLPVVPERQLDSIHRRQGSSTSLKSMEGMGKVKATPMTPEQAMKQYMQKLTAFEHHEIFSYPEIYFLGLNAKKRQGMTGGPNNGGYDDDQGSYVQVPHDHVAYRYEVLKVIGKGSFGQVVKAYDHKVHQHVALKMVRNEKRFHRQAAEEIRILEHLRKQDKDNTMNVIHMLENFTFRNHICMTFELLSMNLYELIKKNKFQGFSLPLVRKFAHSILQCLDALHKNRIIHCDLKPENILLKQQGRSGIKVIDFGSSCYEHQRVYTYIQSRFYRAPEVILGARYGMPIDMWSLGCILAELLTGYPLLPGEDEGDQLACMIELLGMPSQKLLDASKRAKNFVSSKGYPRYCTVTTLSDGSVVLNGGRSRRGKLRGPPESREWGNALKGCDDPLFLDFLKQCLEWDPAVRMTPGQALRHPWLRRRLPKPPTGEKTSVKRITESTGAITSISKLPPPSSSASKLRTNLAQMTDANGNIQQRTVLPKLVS

Cannabinoid receptor 1 [16] = molecular target: T2, Cannabinoid receptor 1; experiment: Antagonist activity at CP-55940-activated CB1 receptor (unknown origin) by beta-arrestin assay; assay type: functional
HT-22 [17] = experiment: Neuroprotective activity against glutamate-induced cell death in mouse HT-22 cells treated for 24 hrs by MTS assay; assay type: functional, cell-based; conditions: HT-22, 24 h
Cannabinoid receptor 1 [18] = molecular target: T2, Cannabinoid receptor 1; experiment: Displacement of [3H]-CP55940 from CB1 receptor (unknown origin) expressed in HEK293 cell membrane assessed as dissociation constant at 10 uM by liquid scintillation counting method; assay type: cell membranes; conditions: filed as modulator
Cannabinoid receptor 1 [19] = molecular target: T2, Cannabinoid receptor 1; experiment: […] allosteric modulation of CB1 receptor (unknown origin) expressed in HEK293 cell membrane assessed as inhibition of CP-55940-induced [35S]-GTPgammaS binding at 10 uM in presence of GDP by liquid scintillation counting method; assay type: functional, cell membranes; conditions: DDE = dose-dependent effect

Chain of Dual specificity protein kinase CLK3 (O35492 whole entry, the tested form may be a part): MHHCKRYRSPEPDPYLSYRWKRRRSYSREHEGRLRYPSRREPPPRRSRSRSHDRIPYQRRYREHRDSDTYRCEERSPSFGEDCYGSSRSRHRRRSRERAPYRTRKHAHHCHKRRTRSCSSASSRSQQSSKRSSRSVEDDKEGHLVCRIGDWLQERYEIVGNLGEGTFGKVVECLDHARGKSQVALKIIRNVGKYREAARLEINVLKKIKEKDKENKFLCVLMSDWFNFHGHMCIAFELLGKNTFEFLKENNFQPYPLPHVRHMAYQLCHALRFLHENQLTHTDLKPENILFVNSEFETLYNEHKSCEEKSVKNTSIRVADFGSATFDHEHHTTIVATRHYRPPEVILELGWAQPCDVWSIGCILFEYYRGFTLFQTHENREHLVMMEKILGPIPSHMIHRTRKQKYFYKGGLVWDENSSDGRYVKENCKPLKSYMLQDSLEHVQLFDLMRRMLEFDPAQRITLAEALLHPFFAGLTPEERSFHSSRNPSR
Chain of Dual specificity protein kinase CLK2 (O35491 whole entry, the tested form may be a part): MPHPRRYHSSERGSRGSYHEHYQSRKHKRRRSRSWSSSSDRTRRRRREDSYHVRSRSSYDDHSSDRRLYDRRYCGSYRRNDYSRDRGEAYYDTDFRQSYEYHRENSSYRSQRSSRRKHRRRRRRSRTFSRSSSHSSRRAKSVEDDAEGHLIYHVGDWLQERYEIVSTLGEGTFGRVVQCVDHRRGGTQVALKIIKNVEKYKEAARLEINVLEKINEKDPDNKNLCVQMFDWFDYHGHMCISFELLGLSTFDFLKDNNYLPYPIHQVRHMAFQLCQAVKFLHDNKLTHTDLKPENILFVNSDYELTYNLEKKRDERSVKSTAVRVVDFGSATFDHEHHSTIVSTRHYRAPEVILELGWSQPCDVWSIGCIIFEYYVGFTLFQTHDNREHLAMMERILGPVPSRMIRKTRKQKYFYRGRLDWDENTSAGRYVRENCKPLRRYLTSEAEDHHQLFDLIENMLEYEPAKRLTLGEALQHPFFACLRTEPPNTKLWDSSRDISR
Chain of Dual specificity tyrosine-phosphorylation-regulated kinase 1B (Q9Y463 whole entry, the tested form may be a part): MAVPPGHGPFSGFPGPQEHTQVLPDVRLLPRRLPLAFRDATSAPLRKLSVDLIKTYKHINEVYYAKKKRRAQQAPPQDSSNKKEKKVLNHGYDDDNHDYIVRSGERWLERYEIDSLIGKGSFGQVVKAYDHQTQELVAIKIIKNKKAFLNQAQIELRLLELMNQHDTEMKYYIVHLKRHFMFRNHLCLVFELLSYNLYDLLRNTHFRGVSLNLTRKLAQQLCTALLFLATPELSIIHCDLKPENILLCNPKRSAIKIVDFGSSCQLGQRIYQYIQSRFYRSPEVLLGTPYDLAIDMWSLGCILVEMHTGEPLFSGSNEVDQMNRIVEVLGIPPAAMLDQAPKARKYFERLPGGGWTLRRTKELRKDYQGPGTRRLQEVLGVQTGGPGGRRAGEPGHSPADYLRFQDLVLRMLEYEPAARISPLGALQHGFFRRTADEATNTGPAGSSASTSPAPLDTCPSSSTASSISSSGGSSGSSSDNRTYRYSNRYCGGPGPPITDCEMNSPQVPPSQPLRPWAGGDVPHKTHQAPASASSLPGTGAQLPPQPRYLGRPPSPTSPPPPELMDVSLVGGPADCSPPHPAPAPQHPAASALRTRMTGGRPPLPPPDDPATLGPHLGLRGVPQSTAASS
Chain of Dual specificity protein kinase CLK1 (P22518 whole entry, the tested form may be a part): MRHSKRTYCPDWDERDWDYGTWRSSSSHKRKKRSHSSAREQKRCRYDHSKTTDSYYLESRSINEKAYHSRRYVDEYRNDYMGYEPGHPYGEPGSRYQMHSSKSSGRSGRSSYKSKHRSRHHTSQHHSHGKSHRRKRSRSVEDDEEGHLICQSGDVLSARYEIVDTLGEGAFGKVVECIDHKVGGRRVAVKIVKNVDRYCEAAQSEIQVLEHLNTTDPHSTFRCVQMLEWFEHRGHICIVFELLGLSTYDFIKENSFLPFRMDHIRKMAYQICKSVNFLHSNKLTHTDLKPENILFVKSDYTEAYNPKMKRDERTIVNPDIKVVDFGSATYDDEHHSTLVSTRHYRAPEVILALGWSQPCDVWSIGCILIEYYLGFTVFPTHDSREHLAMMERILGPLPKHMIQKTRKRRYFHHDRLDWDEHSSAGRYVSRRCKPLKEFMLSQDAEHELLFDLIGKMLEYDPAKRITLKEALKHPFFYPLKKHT
Chain of Serine/threonine-protein kinase pim-1 (P11309 whole entry): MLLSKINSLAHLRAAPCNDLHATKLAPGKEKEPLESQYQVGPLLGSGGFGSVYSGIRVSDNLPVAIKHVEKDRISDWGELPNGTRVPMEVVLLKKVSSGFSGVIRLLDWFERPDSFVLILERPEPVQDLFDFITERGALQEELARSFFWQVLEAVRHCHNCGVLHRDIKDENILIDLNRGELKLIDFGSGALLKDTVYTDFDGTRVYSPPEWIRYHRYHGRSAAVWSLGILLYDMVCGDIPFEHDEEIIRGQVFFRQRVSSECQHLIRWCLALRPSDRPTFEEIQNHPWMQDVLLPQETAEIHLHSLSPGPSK
T2 sequence (P21554 whole entry, the tested form may be a part): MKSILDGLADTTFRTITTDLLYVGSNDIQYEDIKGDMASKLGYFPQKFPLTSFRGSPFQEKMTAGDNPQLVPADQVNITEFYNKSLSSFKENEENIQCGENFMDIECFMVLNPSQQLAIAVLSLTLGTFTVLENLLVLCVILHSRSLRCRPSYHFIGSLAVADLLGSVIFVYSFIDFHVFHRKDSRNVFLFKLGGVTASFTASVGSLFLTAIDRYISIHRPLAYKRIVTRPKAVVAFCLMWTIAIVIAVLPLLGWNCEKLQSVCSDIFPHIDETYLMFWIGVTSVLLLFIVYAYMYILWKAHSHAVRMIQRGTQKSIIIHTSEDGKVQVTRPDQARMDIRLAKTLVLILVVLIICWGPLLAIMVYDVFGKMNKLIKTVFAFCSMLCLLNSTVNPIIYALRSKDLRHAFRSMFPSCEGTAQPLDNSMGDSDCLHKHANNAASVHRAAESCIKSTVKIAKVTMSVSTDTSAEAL
Chain of Dual specificity protein kinase CLK4 (O35493 whole entry, the tested form may be a part): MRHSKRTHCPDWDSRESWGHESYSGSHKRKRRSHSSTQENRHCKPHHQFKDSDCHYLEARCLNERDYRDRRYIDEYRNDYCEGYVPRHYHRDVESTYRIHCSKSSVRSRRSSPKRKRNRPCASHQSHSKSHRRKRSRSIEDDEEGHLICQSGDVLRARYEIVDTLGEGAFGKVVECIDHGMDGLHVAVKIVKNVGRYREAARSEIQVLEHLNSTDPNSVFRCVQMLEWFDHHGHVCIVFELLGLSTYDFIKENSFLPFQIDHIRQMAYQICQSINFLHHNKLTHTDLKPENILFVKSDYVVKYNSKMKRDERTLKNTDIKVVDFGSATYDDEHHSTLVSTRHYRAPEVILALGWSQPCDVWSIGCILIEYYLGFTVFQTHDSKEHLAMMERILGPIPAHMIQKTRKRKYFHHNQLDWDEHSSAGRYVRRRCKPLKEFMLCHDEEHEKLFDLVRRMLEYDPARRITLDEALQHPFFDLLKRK

Compound | IC50 [1] [µM] | deltaCT (HT-22 [2]) | inhibition [3] [%] | Activity [4] | IC50 [5] [µM] | IC50 [6] [µM] | Activity (U2OS) | IC50 [7] [µM] | Activity (Cannabinoid receptor 1 [8]) [%] | IC50 [9] [µM] | IC50 [10] [µM] | IC50 [12] [µM] | IC50 [13] [µM] | IC50 [14] [µM] | IC50 [15] [µM] | IC50 (Cannabinoid receptor 1 [16]) [µM] | EC50 (HT-22 [17]) [µM] | Activity (Cannabinoid receptor 1 [8]; filed as antagonist) [%] | further results
CCCSC1=N/C(=C\c2ccc3c(c2)OCO3)C(=O)N1 | 0.04 | 2.48 | -2.4 | Non-Toxic | 0.09 | 0.034 | 7.3 | 0.95 | -2.6 | 0.51 | 0.11 | 1.4 | 0.027 | 3.1 | 0.037 |  |  |  | IC50 (Casein kinase 2): 1.7 µM; EC50 at 24 h [11]: > 20 µM
CCCNC1=N/C(=C\c2ccc3c(c2)OCO3)C(=O)N1CCC | > 10 | -0.32 | -1.5 | Non-Toxic | > 10 | 3 | 5 |  | -13.4 | > 10 | ≥ 10 | > 10 | 2.3 | > 10 | > 10 |  |  |  | 
CN1C(=O)/C(=C/c2ccc3c(c2)OCO3)N=C1N [LEUCETTAMINE B] |  | 1.14 |  | Non-Toxic |  | 0.14 | 4.3 | > 10 | 9.5 | 1.3 | 0.94 | 5 |  | 6 | 0.43 | > 10 |  |  | 
O=C1NC(Nc2ccc(N3CCCCC3)cc2)=N/C1=C\c1ccc2c(c1)OCO2 | 0.7 |  |  | Non-Toxic | 2.1 | 4.2 | 11.4 |  |  | > 10 | > 10 | > 10 | 1.5 |  | 0.23 | 0.0913 | 0.66 | 81.7 | Kb (Cannabinoid receptor 1 [18]): 3.3 µM; Activity (Cannabinoid receptor 1 [19]): Dde
O=C1NC(Nc2ccc(-c3ccccc3)cc2)=N/C1=C\c1ccc2c(c1)OCO2 | 8.1 |  | -5.1 | Non-Toxic | > 10 | > 10 | 6.8 |  | 36.8 |  | > 10 |  | 5.2 |  | 4.2 |  | > 20 |  | 
O=C1NC(Nc2ccccc2)=N/C1=C\c1cccc(F)c1 | > 10 |  |  |  |  |  | 5.9 | > 10 |  |  |  |  |  |  |  | 0.916 | 3.5 | 79.5 | IC50 at 24 h [11]: > 20 µM
O=C1NC(Nc2ccccc2)=N/C1=C\c1ccc2c(c1)OCCCO2 |  |  |  | Non-Toxic | > 10 | > 10 | 5.6 | > 10 |  |  |  |  | > 10 |  | > 10 |  | 12.5 | 89.3 | Kb (Cannabinoid receptor 1 [18]): 1.2 µM; Activity (Cannabinoid receptor 1 [19]): Dde
CCCCCCc1ccc(NC2=N/C(=C\c3ccc(O)c(OC)c3)C(=O)N2)cc1 | ≥ 10 |  |  |  | ≥ 10 | > 10 | 7.6 | > 10 |  | > 10 |  |  | > 10 |  | ≥ 10 | 2 | 0.27 | 48.1 | EC50 at 24 h [11]: > 20 µM
CCCCOc1ccc(/C=C2\N=C(Nc3ccccc3)NC2=O)cc1OC |  |  | -8 | Non-Toxic |  |  | 7.6 |  |  |  |  |  |  |  |  |  | 2.45 | 54.3 | 
CCNC1=N/C(=C\c2ccc3c(c2)OCO3)C(=O)N1 | 0.14 | 2.64 | -6 | Non-Toxic | 0.48 | 0.065 | 5.6 | 1.2 | -40.4 | 0.47 | 0.38 | 2.4 | 0.06 | 2.3 | 0.19 |  |  |  | IC50 (Casein kinase 2): 0.41 µM
